Data: PMC9376960, “Ruthenium(II)–Tris-pyrazolylmethane Complexes Inhibit Cancer Cell Growth by Disrupting Mitochondrial Calcium Homeostasis” (Journal of Medicinal Chemistry, 2022)

Experiments:
[1] = Octanol/water partition coefficient, shake-flask, UV-vis; format: physicochemical
Description: Partition coefficients (Pow); IUPAC: […] A stock solution of the selected ruthenium compound (ca. 2 mg) was prepared by first adding MeOH (50 μL, to help solubilization), followed by octanol-saturated water (2.5 mL). The solution was diluted with octanol-saturated water (ca. 1:3 v/v ratio, cRu ≈ 10^-4 M, so that 1.5 ≤ A ≤ 2.0 at λmax), and its UV-vis spectrum was recorded (Aaq^0). An aliquot of the solution (Vaq = 1.2 mL) was transferred into a test tube, and water-saturated octanol (Vorg = Vaq = 1.2 mL) was added. […] The UV-vis spectrum of the aqueous phase was recorded (Aaq^f), and the partition coefficient was calculated as Pow = ([…], where […] are the absorbances in the aqueous phase before and after partition with the organic phase, respectively.[118] For 1, an inverse procedure was followed, starting from a solution of the compound in water-saturated octanol. The partition coefficient was calculated as Pow = Aorg^f/(Aorg^0 - Aorg^f), where Aorg^0 and Aorg^f are the absorbances in the organic phase before and after partition with the aqueous phase, respectively. The wavelength of the maximum absorption of each compound (280-380 nm range) was used for UV-vis quantitation. The procedure was repeated three times for each sample (from the same stock solution); the results are given as mean ± standard deviation (Table 2).

[2] = pH of aqueous solution over time; format: physicochemical; details: 10^–3 M H2O solution
Description: Reactants and solvents were purchased from Alfa Aesar, Merck, Strem, or TCI Chemicals and were of the highest purity available. Tris(1-pyrazolyl)methane (tpm) was prepared according to the published procedure.[105] Reactions were conducted under a N2 atmosphere using standard Schlenk techniques, and all products were stored in air once isolated. All compounds are >95% pure by elemental analysis. Solvents were used as received unless otherwise stated. Toluene and diethyl ether were dried with the solvent purification system mBraun MB SPS5, while methanol was distilled from calcium hydride and isopropanol from magnesium. IR spectra of solid samples were recorded on an Agilent Cary630 FTIR spectrometer. IR spectra were processed with Spectragryph software.[106] NMR spectra were recorded at 298 K on a JEOL JNM-ECZ500R instrument equipped with a Royal HFX Broadband probe. Chemical shifts (expressed in parts per million) are referenced to the residual solvent peaks (^1H, ^13C)[107] or external standard (^31P to H3PO4). ^1H and ^13C{^1H} NMR spectra were assigned with the assistance of ^1H–^13C (gs-HSQC and gs-HMBC) correlation experiments.[108] Elemental analyses were performed on a Vario MICRO cube instrument (Elementar). Conductivity measurements were performed at 25 °C using an XS COND 8 instrument (cell constant = 1.0 cm^–1).[109],[110] pH measurements were performed with an Orion pH meter equipped with a Hamilton glass pH electrode. ESI-Q/ToF flow injection analysis was carried out using a 1200 Infinity HPLC (Agilent Technologies), coupled to a Jet Stream ESI interface (Agilent) with a Quadrupole-Time-of-Flight tandem mass spectrometer 6530 Infinity Q-TOF (Agilent Technologies).

log Pow [1] | pH(24h) ([2]; 24 h) | pH(48h) ([2]; 48 h) | pH(t0) ([2]; t0) | Substance
–0.20 ± 0.05 | – | – | – | [RuCl(κ^3-tpm)(PPh3){CNCH2P(O)(OEt2)2}]Cl [compound 9]
–0.15 ± 0.03 | 6.66 | 6.36 | 6.78 | [RuCl(κ^3-tpm)(PPh3){NCHN(Me)(CH)2}]Cl [compound 3]
